According to patent US20040038950A1, “Pharmaceutical composition for treating IL-1 related diseases or disorders” (priority 2002, published 2004):

What was measured:
type II collagen mRNA [1] = assay: RT-PCR of type II collagen mRNA in chondrocytes; type: cell-based, human; conditions: for type II collagen gene up-regulation, enhancement: 72 hours
Method: (§1) Chondrocytes were isolated from the knee joint of patient undergoing a knee replacement due to osteoarthritis. Cartilage was digested with 0.2% protease Type XIV (Sigma) for 1 hour, followed by 3-hour incubation with 0.2% collagenase Type IA (Sigma) at 37° C. Following the incubation, the undigested cartilage fragments were removed using a 70 μm Nylon sieve. Chondrocytes were washed with DPBS and maintained in monolayer culture for 7 days in Dulbecco's modified Eagle's medium (DMEM; Life Technologies Inc.) which contained 10% fetal bovine serum (FBS; Life Technologies), 100 units/ml penicillin-streptomycin (Life Technologies) and 25 μg/ml L-ascorbic acid (Sigma). All experiments were performed with primary or first passage cells. The preparation of chondrocytes in alginate beads was carried out with 4×10^6 cells per 1 ml of alginate. Alginate cultures were maintained for 7 days at 37° C., 5% CO2 and 95% humidity and incubated with various concentrations of DHEA (0, 10, 50 or 100 μM) for a varing period of time. DHEA was purchased from Sigma and used after dissolving either in ethanol or dimethyl sulfoxide (DMSO). After a desired incubation period, cells were harvested by solubilizing the alginate beads in citrate buffer (55 mM sodium citrate, 0.15 M NaCl, pH 7.0) for 10 min at 37° C. and by centrifugation (300 g, 5 min).
Total RNA from chondrocytes was extracted using RNeasy Mini Kit (QIAGEN). Reverse transcription from 1 μg of total RNA was conducted using First Strand cDNA Synthesis Kit (MBI Fermentas) according to manufacturer's recommendation with random hexamers. […] All reactions were determined to be in the linear range of amplification with the cycle number ranging from 14 to 30. The PCR products were analyzed by separation on a 2% agarose gel followed by ethidium bromide staining. Following electrophoresis, photographs were taken and analyzed using a densitometric program (TINA; Raytest Isotopenmeβgerate, Germany). […] After normalizing with respect to GAPDH, percentage increase or decrease was determined. […]

MMP-3 = assay: Western blot of MMP-3 in chondrocyte lysates; type: cell-based, human; conditions: 0, 10 or 100 μ DHEA, three days
Method: as §1, with “After a desired incubation period, cells were harvested by solubilizing the alginate beads in citrate buffer (55 mM sodium citrate, 0.15 M NaCl, pH 7.0) for 10 min at 37° C. and by centrifugation (300 g, 5 min).” left out
To investigate the effect of DHEA on the protein concentration, Western blot analysis was performed. […] Protein concentration of the supernatant was determined by Bio-Rad protein assay (Bio-Rad, USA) using bovine serum albumin (BSA) as a standard. […]

[2] = test system: (IL-1β)-induced IL-6 gene expression; assay: (IL-1β)-induced IL-6 gene expression in chondrocytes; type: cell-based, human; conditions: 10, 50, 100 μM with IL-1β, 72 hr
Method: Sixteen hours prior to a treatment, the complete culture medium was replaced with a serum-free medium. Chondrocyte alginate bead cultures were then treated with IL-1β ([…], (Calbiochem) and DHEA (0, 10, 50 or 100 μM) for 3 days.
Total RNA from chondrocytes was extracted using RNeasy Mini Kit (QIAGEN). Reverse transcription from 1 μg of total RNA was conducted using First Strand cDNA Synthesis Kit (MBI Fermentas) according to manufacturer's recommendation with random hexamers. The resulting cDNA was then amplified by polymerase chain reaction using AccuPower PCR Premix (Bioneer, Korea) in a final volume of 20 μl using three thermocycler temperatures (30 sec at […], 30 sec at 60° C., and 30 sec at […]). All reactions were determined to be in the linear range of amplification with the cycle number ranging from 14 to 30. The PCR products were analyzed by separation on a 2% agarose gel followed by ethidium bromide staining. Following electrophoresis, photographs were taken and analyzed using a densitometric program (TINA; Raytest Isotopenmeβgerate, Germany). Integrated density values for the genes in question were then normalized to the glyceraldehyde-3-phosphate dehydrogenase (GAPDH) values for a semiquantitative assessment. After normalizing with respect to GAPDH, percentage increase or decrease was determined. Each experiment was repeated at least three times. […]

type II collagen mRNA [3] = assay: Osteoarthritic rabbit model (ACLT), intraarticular injection, RT-PCR of type II collagen; type: in vivo; conditions: rabbit ACLT knee, intraarticular once a week for 5 weeks
Method: (§2) Mature New Zealand White rabbits underwent bilateral anterior cruciate ligament transection (ACLT). ACLT was performed using a medial arthrotomy method. Postoperatively the animals were permitted cage (60 cm×60 cm×40 cm) activity without immobilization. The right knees received via intraartiticular injection DHEA, DHEA-pyruvate or DHEA+HA, 4 weeks after ACLT and once a week for 5 weeks. The left knees received 0.3 ml of intraarticular injection with control solution (carrier solution). After 9 weeks from ACLT, the animas were sacrificed.
(§3) Synovium (entire tissue) around the infrapatellar fat pads and cartilage tissue from the femoral condyle and the tibial plateau were harvested. The subsequent experimental procedure was the same as described in Test Example IV.

TIMP-1 mRNA = assay: Osteoarthritic rabbit model (ACLT), intraarticular injection, RT-PCR of TIMP-1; type: in vivo; conditions: rabbit ACLT knee, intraarticular once a week for 5 weeks
Method: as §2, §3

MMP-3 expression = assay: Osteoarthritic rabbit model (ACLT), intraarticular injection, RT-PCR of MMP-3; type: in vivo; conditions: rabbit ACLT knee, intraarticular once a week for 5 weeks
Method: as §2, §3

In the case of `C[C@]12CC[C@H](O)CC1=CC[C@@H]1[C@@H]2CC[C@]2(C)C(=O)CC[C@@H]12` [DHEA, dehyroepiandrosterone], the “type II collagen gene up-regulation, enhancement” value (type II collagen mRNA [1]; 50 μM) is reported as 132%, the “type II collagen gene up-regulation, enhancement” value (type II collagen mRNA [1]; 100 μM) is reported as 146% and the Emax at 100 µM (type II collagen mRNA [1]; Homo sapiens, Chondrocyte, 100 μM, after 48 hr, read-out: type II collagen mRNA level, maximal stimulation) is reported as 276%. The “MMP-3 protein level (Western blot)” value (MMP-3) was “did not change”, the “(IL-1β)-induced IL-6 gene expression” value [2] was “no significantly change” and the “expression of type II collagen” value (type II collagen mRNA [3]) was “increased”. For the same compound, the “expression of TIMP-1” value (TIMP-1 mRNA) was “increased” and the “expression of MMP-3” value (MMP-3 expression) was “did not change”.
